Tests used:
[1] = Body weight and fasting plasma analyses in Zucker rats; type: in vivo, rat; details: obese Zucker (fa/fa) rats, post-Rx, pioglitazone 10 mg/kg/day in chow for 3 weeks; average ± standard error
Text: Male C57Bl/6J WT mice (cat #000664) and OPN KO mice (B6.Cg-Spp1tm2blh/J, cat #004936) were purchased from Jackson Laboratories. This OPN KO mouse line has been backcrossed into the C57Bl/6J background >10 generations. Mouse diets were as follows: normal chow diet (12% kcal from fat; Purina 5001, LabDiet) and high fat diet (41% kcal from fat; TD96132, Harlan Teklad). Mice were 4-6 months of age and age-matched in all studies. Male lean Zucker (fa/+) and fatty Zucker (fa/fa) rats were purchased from Charles River. […] All rats were nine weeks of age at time of terminal metabolic studies and tissue harvest. All animals were housed 1-3 per cage under controlled light (12:12 light:dark) and climate conditions. Animals had unlimited access to food and water.
(§1) Insulin sensitivity was determined by hyperinsulinemic euglycemic clamp, as previously published (Hevener, A L, et al., 2001, Diabetes 50, 2316-2322). […] Plasma glucose specific activity was measured after deproteinization with barium hydroxide and zinc sulfate (Revers, R R, 1984, J Clin Invest 73, 664-672). Hepatic glucose output (HGO) and glucose disposal rate (GDR) were calculated for the basal period and the steady-state portion of the glucose clamp using the Steele equation for steady-state conditions (Steele R. Influences of glucose loading and of injected insulin on hepatic glucose output. Ann N Y Acad Sci 82: 420-430, 1959). […]
Plasma insulins were measured by radioimmune assay kit (Linco Research, St. Charles, Mo.). Plasma FFA levels were measured enzymatically using a commercially available kit (NEFA C; Wako Chemicals USA). Triglycerides were measured using the Triglyceride-SL Assay (Diagnostic Chemicals Ltd.). Cholesterol was measured using the Chol kit and Roche/Hitachi analyzer (Roche). Tissue lysates were analyzed by SDS-PAGE, western blotting and chemiluminescence and by ELISA. Signal intensities of chemiluminescence autoradiographs were densitometrically quantified using a digital Kodak 3D Imagestation and associated digital image analysis software (Kodak, New. Haven, Conn.). […]

[2] = BMI and fasting plasma analyses in human patients; type: in vivo; details: post-Rx, pioglitazone 45 mg/day for 3 months, average ± standard error
Protocol: Baseline plasma samples were drawn and hyperinsulinemic-euglycemic clamps were performed in the morning after a 10 hr fast as previously described (Frias, J P et al., 2000, Diabetes Care 23, 64-69; Yu, J G et al., 2002, Diabetes 51, 2968-2974). The experimental protocol was approved by the Institutional Review Board of the University of California, San Diego. Informed written consent was obtained from each subject.
Plasma insulins were measured by radioimmune assay kit (Linco Research, St. Charles, Mo.). Plasma FFA levels were measured enzymatically using a commercially available kit (NEFA C; Wako Chemicals USA). Triglycerides were measured using the Triglyceride-SL Assay (Diagnostic Chemicals Ltd.). Cholesterol was measured using the Chol kit and Roche/Hitachi analyzer (Roche). Tissue lysates were analyzed by SDS-PAGE, western blotting and chemiluminescence and by ELISA. Signal intensities of chemiluminescence autoradiographs were densitometrically quantified using a digital Kodak 3D Imagestation and associated digital image analysis software (Kodak, New. Haven, Conn.). IL-1β, IL-12p70, IFNγ, IL-6, IL-10, Cxcl1 and TNFα levels in plasma and tissue lysates were measured using a multiplex (7-plex) ELISA (Meso Scale Discovery).

[3] = Hyperinsulinemic-euglycemic clamp in human patients (rate of glucose disposal, Rd); type: in vivo; details: obese, insulin resistant patients, post-Rx, pioglitazone 45 mg/day for 3 months; average ± standard error
[4] = Hyperinsulinemic euglycemic clamp in Zucker rats (rate of glucose disposal, Rd); type: in vivo, rat; details: obese Zucker (fa/fa) rats, post-Rx, pioglitazone 10 mg/kg/day in chow for 3 weeks; average ± standard error
Protocol: Peripheral insulin sensitivity (measured as the rate of glucose disposal, Rd) of the rat and human groups was measured using the hyperinsulinemic euglycemic clamp procedure. Clinical characteristics of the rats and humans are detailed in Table 1. OPN expression in adipose tissue was elevated in obese, insulin resistant rats (17-fold) and humans (4.6-fold) compared to insulin sensitive lean controls. […] In fact, when the pre-treatment patient data was combined, there was a significant correlation between adipose tissue OPN RNA levels and Rd (FIG. 1C).
Male C57Bl/6J WT mice (cat #000664) and OPN KO mice (B6.Cg-Spp1tm2blh/J, cat #004936) were purchased from Jackson Laboratories. […]
as §1

[5] = lean, insulin sensitive patients
[6] = obese, insulin resistant patients

**Q.** With `CCc1ccc(CCOc2ccc(CC3SC(=O)NC3=O)cc2)nc1` (stereo not shown) [pioglitazone] as the molecule, how does the “Fasting plasma free fatty acids” value [1] read?
**A.** The value was 0.69 ± 0.29 mmol/L.

**Q.** What about the Fasting plasma glucose [1] of the same molecule?
**A.** Its Fasting plasma glucose is 124.8 ± 4.0 ^ mg/dL.

**Q.** What about the Fasting plasma triglyceride [1] of the same molecule?
**A.** The Fasting plasma triglyceride was 108.0 ± 16.1 mg/dL.

**Q.** What about the Fasting plasma free fatty acids [2, 5] of the same molecule?
**A.** The Fasting plasma free fatty acids was 414 ± 90 µM.

**Q.** And the Fasting plasma glucose [2, 5]?
**A.** Its Fasting plasma glucose is 87.6 ± 3.1 mg/dL.

**Q.** What about the Fasting plasma insulin [2, 5] of the same molecule?
**A.** The Fasting plasma insulin was 10.1 ± 2.2 pmol/L.

**Q.** And the Fasting plasma triglyceride [2, 5]?
**A.** Its Fasting plasma triglyceride is 76.0 ± 9.2 mg/dL.

**Q.** What about the Fasting plasma free fatty acids [2, 6] of the same molecule?
**A.** Its Fasting plasma free fatty acids is 434 ± 59 µM.

**Q.** What about the Fasting plasma glucose [2, 6] of the same molecule?
**A.** The Fasting plasma glucose was 91.7 ± 2.5 mg/dL.

**Q.** What about the Fasting plasma insulin [2, 6] of the same molecule?
**A.** The Fasting plasma insulin was 13.6 ± 1.6 pmol/L.

**Q.** What about the Fasting plasma triglyceride [2, 6] of the same molecule?
**A.** Its Fasting plasma triglyceride is 137.7 ± 7.2 mg/dL.

**Q.** And the “Glucose disposal, Rd” value [3]?
**A.** The value was 5.9 ± 0.5 mg/kg/min.

**Q.** And the “Glucose disposal, Rd” value [4]?
**A.** The value was 30.6 ± 2.9 mg/kg/min.

From patent US20110008328A1, “METHOD FOR CONTROLLING GLUCOSE UPTAKE AND INSULIN SENSITIVITY” (Pfizer Inc., priority 2007, published 2011)
